Results from patent EP0443560A2, “HIV protease inhibitors” (priority 1990, dated 1991).
Like-named read-outs stand apart in the source and are kept apart here.

Target: T1, HIV protease (Human immunodeficiency virus type 1 group M subtype B, UniProt P04585)
T1 construct: HIV protease was expressed in E. coli [construct pBRT1 prt⁺; made in house; host or cells: E. coli
Experiment: Recombinant HIV Protease HPLC Assay
Type: biochemical
Description: The procedure is based on the capacity of the test compound to inhibit enzymatic cleavage by HIV protease of a decapeptide (the substrate) having an amino acid sequence which includes a known HIV protease cleavage site of a HIV polyprotein; see H.G. Krausslich et al., Proc. Natl. Acad. Sci. USA, 86, 807 (1989). Details of this assay together with the results obtained for exemplified compounds of formula 1 are described in the examples hereinafter.
Recombinant HIV Protease HPLC Assay:
HIV protease was expressed in E. coli [construct pBRT1 prt⁺, see W.G. Farmerie et al., Science, 236, 305 (1987)], according to the following protocol: Unless stated otherwise, all solutions are aqueous solutions.
E. coli cells containing the pBRT1 prt⁺ plasmid were used to inoculate a seed culture media composed of Luria-Bertani Broth containing 100µg/mL of ampicillin. Flasks were incubated at 37° under agitation for 17 h. Production flasks containing sterile M9 broth, supplemented with 100µg/ml of ampicillin, were inoculated at a level of 1% (v/v) using the seed culture described above. Total volume in each production flask was 500 mL in a 2 L Erlenmeyer flask. Flasks were incubated at 37° under agitation until a cell concentration corresponding to an optical density (λ = […]) of 0.6 was reached (no dilution). This time span was routinely 3-4 h. Flasks were then supplemented with 5mM isopropylthiogalactoside (IPTG, Research Organics, Cleveland, Ohio, USA) and incubation was continued until the cell concentration reached an optical density of 0.2 at 16-fold dilution. Flasks were then supplemented with 1mM phenylmethylsulfonyl fluoride (PMSF) and rapidly chilled to 4°. The bacterial cells were recovered by centrifugation at 4°. The wet pellet was stored at -70°.
All steps below were performed at 4° unless otherwise indicated. Thawed cells were mixed with buffer A [50 mM tris(hydroxymethyl)[…] HCl(Tris-HCl, pH 7.4); 0.6 mM ethylenediaminetetraacetic acid (EDTA); 0.375 M NaCl, 0.2% Nonidet P-40 ® (BDH Chemicals Ltd., Poole, UK); 1mM PMSF], at a ratio of one part cells to nine parts buffer A. Diatomaceous earth (Celite 545 ® , John Manville, Lompoc, CA, USA) was added at a ratio of two parts to one part of wet cell weight. The resulting slurry was homogenized at high speed (ca. 20,000 rpm) on a Waring ® industrial blender for 8 x 15 sec. pulses. Cell debris/Celite ® was collected by centrifugation and the resulting pellet was extracted with 4.5 parts of buffer A to one part wet solids using the homogenization procedure described above. Supernatants from both homogenization steps were combined and soluble protein was precipitated by the addition of solid (NH₄)₂SO₄ to yield a final concentration of 75% saturation. This mixture was agitated for 60 min and the precipitate was recovered by centrifugation. The resulting pellet was suspended in buffer B [50mM Tris-HCl, pH 8; 30 mM NaCl; 1 mM DL-dithiothreitol(DTT); 1 mM EDTA; 1 mM PMSF; 10% glycerol], and dialyzed for 18h against the same buffer.
An aliquot of the dialyzed extract containing 150 mg of the protein was loaded onto a Sephadex A25 ® anion exchange column. (Pharmacia, Uppsala, Sweden) with bed dimensions of 70 cm length and 2.5 cm diameter. The sample was eluted isocratically with buffer B at a linear flow rate of 10 cm/h. Fractions containing HIV protease activity (see below for assay description) were combined, and soluble protein was precipitated by the addition of saturated aqueous (NH₄)₂SO₄ to yield a total (NH₄)₂SO₄ concentration of 85% saturation. Precipitated protein was removed by centrifugation and the resulting pellet was dissolved in buffer C [50 mM 2-(4-morpholino)ethanesulfonic acid (MES), pH 5.5; 150 mM NaCl; 1 mM DTT; 1 mM EDTA; 10% glycerol). This preparation was dialyzed for 18h against buffer C, and then frozen at -70°. All crude extracts were purified by chromatography in aliquots containing 150 mg of protein in the same manner as described above. […]

[1] = recombinant HIV protease HPLC assay, values in parenthesis in text, read-out: IC₅₀
[2] = read-out: IC₅₀, recombinant HIV protease HPLC assay, values in parenthesis in text

Row | IC50 [1] [nM] | Molecule | further results
1 | – | CSc1ccc(CCNC(=O)C(CCC(=O)O)NC(=O)CC(O)C(CC2CCCCC2)NC(=O)OC(C)(C)C)cc1 (stereo not drawn) [Example 22, Boc-ACHPA-Glu-NHCH₂CH₂-(4MeS-Ph)] | IC50: 18 nM
2 | – | COC(=O)CCC(NC(=O)CC(O)C(CC1CCCCC1)NC(=O)OC(C)(C)C)C(=O)NCCCc1ccccc1 (stereo not drawn) [Example 5, Boc-ACHPA-Glu(OMe)-NHCH₂CH₂CH₂Ph] | IC50: 110 nM
3 | – | O=C(O)CCC(NC(=O)CC(O)C(CC1CCCCC1)NC(=O)C1CCCCC1)C(=O)NCCc1ccccc1 (stereo not drawn) [Example 12, (Cyclohexylcarbonyl)-ACHPA-Glu-NHCH₂CH₂Ph] | IC50: 130 nM
4 | 160 | CC(=O)N[C@@H](CC1CCCCC1)[C@@H](O)CC(=O)N[C@@H](CCC(=O)O)C(=O)NCCCc1ccccc1 [CH₃C(O)-ACHPA-Glu-NHCH₂CH₂CH₂Ph] | –
5 | 12 | CCCC[C@H](NC[C@H](Cc1ccccc1)NC(=O)OC(C)(C)C)C(=O)N[C@@H](CCC(=O)O)C(=O)NCCCc1ccccc1 [Boc-PheΨ[CH₂NH]Nle-Glu-NHCH₂CH₂CH₂Ph] | –
6 | 7.1 | CC(C)(C)OC(=O)NC(CC1CCCCC1)C(O)CC(=O)NC(CCC(=O)O)C(=O)NCCOCc1ccccc1 (stereo not drawn) [Boc-ACHPA-Glu-NHCH₂CH₂OBzl] | –
7 | – | CCCCCCCCNC(=O)C(CCC(=O)O)NC(=O)CC(O)C(CC1CCCCC1)NC(=O)OC(C)(C)C (stereo not drawn) [Example 13, Boc-ACHPA-Glu-NH(CH₂)₇CH₃] | IC50: 40 nM
8 | 150 | COC(=O)CC[C@H](NC(=O)C[C@H](O)[C@H](CC1CCCCC1)NC(=O)OC(C)C)C(=O)NCCOCc1ccccc1 [Ipoc-ACHPA-Glu(OMe)-NHCH₂CH₂OBzl] | –
9 | 25 | CC(C)(C)OC(=O)N[C@@H](CC1CCCCC1)[C@@H](O)CC(=O)N[C@@H](CCC(=O)O)C(=O)NCCCc1ccco1 [Boc-ACHPA-Glu-NHCH₂CH₂CH₂-(2-furyl)] | –
10 | – | COC(=O)CC[C@H](NC(=O)C[C@H](O)[C@H](CC1CCCCC1)NC(=O)OC(C)(C)C)C(=O)NCCOc1ccccc1Cl [Boc-ACHPA-Glu(OMe)-NHCH₂CH₂O-(2Cl-Ph)] | IC50 [2]: 140 nM
11 | 14 | CC(C)(C)OC(=O)N[C@@H](CC1CCCCC1)[C@@H](O)CCC(=O)N[C@@H](CCC(=O)O)C(=O)NCCCc1ccccc1 [Boc-ChaΨ[CH(OH)CH₂]Gly-Glu-NHCH₂CH₂CH₂Ph] | –
12 | – | CC(C)(C)OC(=O)NC(CC1CC1)C(O)CC(=O)NC(CCC(=O)O)C(=O)NCCCc1ccccc1 (stereo not drawn) [Example 18, Boc-ACPPA-Glu-NHCH₂CH₂CH₂Ph] | IC50: 180 nM
13 | – | CC(C)(C)OC(=O)N[C@@H](CC1CCCCC1)[C@@H](O)CC(=O)N[C@@H](CCC(=O)O)C(=O)NCCCc1ccc(F)cc1 [Boc-ACHPA-Glu-NHCH₂CH₂CH₂-(4F-Ph)] | IC50 [2]: 5.6 nM
14 | – | CC(C)(C)NC(=O)NC(CC1CCCCC1)C(O)CC(=O)NC(CCC(=O)O)C(=O)NCCCc1ccccc1 (stereo not drawn) [Example 26, (CH₃)₃CNHCO-ACHPA-Glu-NHCH₂CH₂CH₂Ph] | IC50: 120 nM
15 | – | CC(C)(C)OC(=O)NC(C(O)CC(=O)NC(CCC(=O)O)C(=O)NCCCc1ccccc1)C(O)C1CCCCC1 (stereo not drawn) [Example 33, Boc-HACHPA-Glu-NHCH₂CH₂CH₂Ph] | IC50: 7.7 nM
16 | 16 | CC(C)(C)OC(=O)N[C@H](CN[C@@H](CC1CC1)C(=O)N[C@@H](CCC(=O)O)C(=O)NCCc1ccccc1)Cc1ccccc1 [Boc-PheΨ[CH₂NH]Cpa-Glu-NHCH₂CH₂Ph] | –
17 | – | CC(C)(C)OC(=O)NC(CC1CCCCC1)C(O)CC(=O)NC(CCC(=O)O)C(=S)NCCCc1ccccc1 (stereo not drawn) [Example 31, Boc-ACHPA-GluΨ[CSNH]-NHCH₂CH₂CH₂Ph] | IC50: 380 nM

Row | IC50 [1] [nM] | Molecule | further results
18 | 30 | CC(C)[C@H](NC[C@H](Cc1ccccc1)NC(=O)OC(C)(C)C)C(=O)N[C@@H](CCC(=O)O)C(=O)NCCCc1ccccc1 [Boc-PheΨ[CH₂NH]Val-Glu-NHCH₂CH₂₂CH₂Ph] | –
19 | 120 | COC(=O)CC[C@H](NC(=O)C[C@H](O)[C@@H](NC(=O)OC(C)(C)C)[C@@H](O)C1CCCCC1)C(=O)NCCCc1ccccc1 [Boc-HACHPA-Glu(OMe)-NHCH₂CH₂CH₂Ph] | –
20 | 33 | COc1ccc(CCNC(=O)[C@H](CCC(=O)O)NC(=O)C[C@H](O)[C@H](CC2CCCCC2)NC(=O)OC(C)(C)C)cc1 [Boc-ACHPA-Glu-NHCH₂CH₂-(4-MeO-Ph)] | –
21 | – | CC(C)(C)OC(=O)N[C@@H](CC1CCCCC1)[C@@H](O)CC(=O)N[C@@H](CCC(=O)O)C(=O)NCCc1ccc(Cl)cc1 [Boc-ACHPA-Glu-NHCH₂CH₂-(4-Cl-Ph)] | IC50 [2]: 12 nM
22 | – | CC(C)(C)OC(=O)N[C@@H](CC1CCCCC1)[C@@H](O)CC(=O)N[C@@H](CCC(=O)O)C(=O)NCCOc1ccccc1Cl [Boc-ACHPA-Glu-NHCH₂CH₂O-(2Cl-Ph)] | IC50 [2]: 6.6 nM
23 | 91 | COC(=O)CCC(NC(=O)CC(O)C(CC1CCCCC1)NC(=O)OC(C)(C)C)C(=O)NCCc1ccc(SC)cc1 (stereo not drawn) [Boc-ACHPA-Glu(OMe)-NHCH₂CH₂-(4MeS-Ph)] | –
24 | – | CCC(CC)C(=O)NC(CC1CCCCC1)C(O)CC(=O)NC(CCC(=O)O)C(=O)NCCc1ccccc1 (stereo not drawn) [Example 6, (C₂H₅)₂CHC(O)-ACHPA-Glu-NHCH₂CH₂Ph] | IC50: 93 nM
25 | 15 | COC(=O)N[C@@H](CC1CCCCC1)[C@@H](O)CC(=O)N[C@@H](CCC(=O)O)C(=O)NCCCc1ccccc1 [Moc-ACHPA-Glu-NHCH₂CH₂CH₂Ph] | –
26 | – | CC(C)(C)OC(=O)NC(CC1CCCCC1)C(O)CC(=O)NC(CCC(=O)O)C(=O)OCCCc1ccccc1 (stereo not drawn) [Example 25, Boc-ACHPA-Glu-OCH₂CH₂CH₂Ph] | IC50: 85 nM
27 | 6.3 | CC(C)OC(=O)N[C@@H](CC1CCCCC1)[C@@H](O)CC(=O)N[C@@H](CCC(=O)O)C(=O)NCCCc1ccccc1 [Ipoc-ACHPA-Glu-NH-CH₂CH₂CH₂Ph] | –
28 | 8.6 | CC(C)(C)OC(=O)N[C@@H](CC1CCCCC1)[C@@H](O)CC(=O)N[C@@H](CCC(=O)O)C(=O)NCCOc1ccccc1 [Boc-ACHPA-Glu-NHCH₂CH₂OPh] | –
29 | 260 | COC(=O)CC[C@H](NC(=O)C[C@H](O)[C@H](CC1CCCCC1)NC(=O)OC(C)(C)C)C(=O)NCCOCc1ccccc1 [Boc-ACHPA-Glu(OMe)-NHCH₂CH₂OBzl] | –
30 | – | CC(C)C[C@H](NC[C@H](Cc1ccccc1)NC(=O)OC(C)(C)C)C(=O)N[C@@H](CCC(=O)O)C(=O)NCCCc1ccccc1 [Example 1, Boc-PheΨ[CH₂NH]Leu-Glu-NHCH₂CH₂CH₂Ph] | IC50: 36 nM
31 | 600 | COC(=O)CC[C@H](NC(=O)CC[C@H](O)[C@H](CC1CCCCC1)NC(=O)OC(C)(C)C)C(=O)NCCCc1ccccc1 [Boc-ChaΨ[CH(OH)CH₂]Gly-Glu(OMe)-NHCH₂CH₂CH₂Ph] | –
32 | 33 | CC(C)(C)OC(=O)N[C@@H](CC1CCCCC1)[C@@H](O)CC(=O)N[C@@H](CCC(=O)O)C(=O)NCCCc1cccs1 [Boc-ACHPA-Glu-NHCH₂CH₂CH₂-(2-thienyl)] | –
33 | – | COC(=O)CC[C@H](NC(=O)C[C@H](O)[C@H](CC1CCCCC1)NC(=O)OC(C)(C)C)C(=O)NCCCc1ccc(F)cc1 [Boc-ACHPA-Glu(OMe)-NHCH₂CH₂CH₂-(4F-Ph)] | IC50 [2]: 83 nM

Row | Molecule | IC50 [1] [nM] | further results
34 | Boc(4F-Phe)Ψ[CH₂NH]Cpa-Glu-NHCH₂CH₂-(4F-Ph) | 15 | –
35 | Boc-PheΨ[CH₂NH]Cpa-Glu-NHCH₂CH₂CH₂-(4F-Ph) | 8 | –
36 | Boc-homoACHPA-Glu-NHCH₂CH₂CH₂Ph | 68 | –
37 | Boc-AHDHA-Glu-NHCH₂CH₂CH₂Ph | 32 | –
38 | Boc-PheΨ[CH₂NH]Cpa-Glu-NHCH₂CH₂-(4F-Ph) | 8.4 | –
39 | CC(C[C@H](NC(=O)C[C@H](O)[C@H](CC1CCCCC1)NC(=O)OC(C)(C)C)C(=O)NCCCc1ccccc1)C(=O)O (stereo partly drawn) [Boc-ACHPA-{(S)-NHCH[CH₂CH(CH₃)COOH]}C(O)-NHCH₂CH₂CH₂Ph] | 18 | –
